≈ marks a conversion by molar mass, not a printed value.
Assays:
Format in all cases: functional
[1] = system: Staphylococcus aureus; test: Antibacterial activity against Staphylococcus aureus clinical isolate 10 assessed as growth inhibition at pH 9 after 16 to 18 hr by NCCLS agar dilution method
[2] = system: Staphylococcus aureus; test: Antibacterial activity against Staphylococcus aureus clinical isolate 6 assessed as growth inhibition at pH 7 after 16 to 18 hr by NCCLS agar dilution method
[3] = system: Staphylococcus aureus; test: Bactericidal activity against methicillin-resistant Staphylococcus aureus isolate 2 after 24 hr; details: isolate 2, 24 h
[4] = system: Staphylococcus aureus; test: Antibacterial activity against Staphylococcus aureus clinical isolate 12 assessed as growth inhibition at pH 5 after 16 to 18 hr by NCCLS agar dilution method
[5] = system: Staphylococcus aureus; test: Antibacterial activity against Staphylococcus aureus clinical isolate 22 assessed as growth inhibition at pH 5 after 16 to 18 hr by NCCLS agar dilution method
[6] = system: Helicobacter pylori; test: Antibacterial activity against Helicobacter pylori 06-3 assessed as growth inhibition after 16 to 18 hr NCCLS agar dilution method
[7] = system: Staphylococcus aureus; test: Bactericidal activity against Staphylococcus aureus clinical isolate 10 after 24 hr; details: isolate 10, 24 h
[8] = system: Staphylococcus aureus; test: Antibacterial activity against Staphylococcus aureus clinical isolate assessed as growth inhibition after 16 to 18 hr by NCCLS agar dilution method
[9] = system: Staphylococcus aureus; test: Antibacterial activity against methicillin-resistant Staphylococcus aureus isolate 5 assessed as growth inhibition after 16 to 18 hr by NCCLS agar dilution method
[10] = system: Staphylococcus aureus; test: Antibacterial activity against Staphylococcus aureus clinical isolate 14 assessed as growth inhibition at pH 9 after 16 to 18 hr by NCCLS agar dilution method
[11] = system: Staphylococcus aureus; test: Antibacterial activity against Staphylococcus aureus clinical isolate 19 assessed as growth inhibition at pH 9 after 16 to 18 hr by NCCLS agar dilution method
[12] = system: Staphylococcus aureus; test: Antibacterial activity against Staphylococcus aureus clinical isolate 16 assessed as growth inhibition at pH 5 after 16 to 18 hr by NCCLS agar dilution method
[13] = system: Helicobacter pylori; test: Antibacterial activity against Helicobacter pylori 05-3 assessed as growth inhibition after 16 to 18 hr NCCLS agar dilution method
[14] = system: Staphylococcus aureus; test: Antibacterial activity against Staphylococcus aureus clinical isolate 24 assessed as growth inhibition at pH 5 after 16 to 18 hr by NCCLS agar dilution method
[15] = system: Staphylococcus aureus; test: Bactericidal activity against methicillin-resistant Staphylococcus aureus isolate 1 after 24 hr; details: isolate 1, 24 h
[16] = system: Staphylococcus aureus; test: Antibacterial activity against methicillin-resistant Staphylococcus aureus isolate 1 assessed as growth inhibition after 16 to 18 hr by NCCLS agar dilution method
[17] = system: Staphylococcus aureus; test: Bactericidal activity against Staphylococcus aureus clinical isolate 3 after 24 hr; details: isolate 3, 24 h
[18] = system: Staphylococcus aureus; test: Antibacterial activity against Staphylococcus aureus clinical isolate 11 assessed as growth inhibition at pH 9 after 16 to 18 hr by NCCLS agar dilution method
[19] = system: Staphylococcus aureus; test: Antibacterial activity against Staphylococcus aureus clinical isolate 4 assessed as growth inhibition at pH 5 after 16 to 18 hr by NCCLS agar dilution method
[20] = system: Staphylococcus aureus; test: Antibacterial activity against Staphylococcus aureus clinical isolate 7 assessed as growth inhibition at pH 5 after 16 to 18 hr by NCCLS agar dilution method
[21] = system: Helicobacter pylori; test: Antibacterial activity against Helicobacter pylori 06-4 assessed as growth inhibition after 16 to 18 hr NCCLS agar dilution method
[22] = system: Staphylococcus aureus; test: Antibacterial activity against Staphylococcus aureus clinical isolate 9 assessed as growth inhibition at pH 9 after 16 to 18 hr by NCCLS agar dilution method
[23] = system: Staphylococcus aureus; test: Antibacterial activity against Staphylococcus aureus clinical isolate assessed as growth inhibition at pH 7 after 16 to 18 hr by NCCLS agar dilution method
[24] = system: Staphylococcus aureus; test: Antibacterial activity against Staphylococcus aureus clinical isolate 2 assessed as growth inhibition at pH 5 after 16 to 18 hr by NCCLS agar dilution method
[25] = system: Staphylococcus aureus; test: Bactericidal activity against methicillin-resistant Staphylococcus aureus isolate 4 after 24 hr; details: isolate 4, 24 h
[26] = system: Staphylococcus aureus; test: Antibacterial activity against Staphylococcus aureus clinical isolate 5 assessed as growth inhibition at pH 5 after 16 to 18 hr by NCCLS agar dilution method
[27] = system: Staphylococcus aureus; test: Antibacterial activity against Staphylococcus aureus clinical isolate 23 assessed as growth inhibition at pH 7 after 16 to 18 hr by NCCLS agar dilution method
[28] = system: Staphylococcus aureus; test: Bactericidal activity against Staphylococcus aureus clinical isolate 9 after 24 hr; details: isolate 9, 24 h
[29] = system: Staphylococcus aureus; test: Antibacterial activity against Staphylococcus aureus clinical isolate 22 assessed as growth inhibition at pH 7 after 16 to 18 hr by NCCLS agar dilution method
[30] = system: Staphylococcus aureus; test: Antibacterial activity against Staphylococcus aureus clinical isolate 9 assessed as growth inhibition after 16 to 18 hr by NCCLS agar dilution method
[31] = system: Staphylococcus aureus; test: Bactericidal activity against Staphylococcus aureus clinical isolate 8 after 24 hr; details: isolate 8, 24 h
[32] = system: Helicobacter pylori; test: Antibacterial activity against Helicobacter pylori 05-5 assessed as growth inhibition after 16 to 18 hr NCCLS agar dilution method
[33] = system: Staphylococcus aureus; test: Antibacterial activity against Staphylococcus aureus clinical isolate 17 assessed as growth inhibition at pH 7 after 16 to 18 hr by NCCLS agar dilution method
[34] = system: Staphylococcus aureus; test: Antibacterial activity against methicillin-resistant Staphylococcus aureus isolate 3 assessed as growth inhibition after 16 to 18 hr by NCCLS agar dilution method
[35] = system: Staphylococcus aureus; test: Antibacterial activity against Staphylococcus aureus clinical isolate 8 assessed as growth inhibition after 16 to 18 hr by NCCLS agar dilution method
[36] = system: Helicobacter pylori; test: Antibacterial activity against Helicobacter pylori 06-2 assessed as growth inhibition after 16 to 18 hr NCCLS agar dilution method
[37] = system: Staphylococcus aureus; test: Bactericidal activity against Staphylococcus aureus clinical isolate 7 after 24 hr; details: isolate 7, 24 h
[38] = system: Helicobacter pylori; test: Antibacterial activity against Helicobacter pylori assessed as growth inhibition after 16 to 18 hr NCCLS agar dilution method
[39] = system: Staphylococcus aureus; test: Antibacterial activity against Staphylococcus aureus clinical isolate 13 assessed as growth inhibition at pH 7 after 16 to 18 hr by NCCLS agar dilution method
[40] = system: Helicobacter pylori; test: Antibacterial activity against Helicobacter pylori 06-1 assessed as growth inhibition after 16 to 18 hr NCCLS agar dilution method
[41] = system: Staphylococcus aureus; test: Antibacterial activity against Staphylococcus aureus clinical isolate 24 assessed as growth inhibition at pH 7 after 16 to 18 hr by NCCLS agar dilution method
[42] = system: Staphylococcus aureus; test: Antibacterial activity against Staphylococcus aureus clinical isolate assessed as growth inhibition at pH 5 after 16 to 18 hr by NCCLS agar dilution method
[43] = system: Staphylococcus aureus; test: Antibacterial activity against Staphylococcus aureus clinical isolate 4 assessed as growth inhibition after 16 to 18 hr by NCCLS agar dilution method
[44] = system: Staphylococcus aureus; test: Antibacterial activity against Staphylococcus aureus clinical isolate 14 assessed as growth inhibition at pH 5 after 16 to 18 hr by NCCLS agar dilution method

**Q.** For `CO/N=C/CC(=O)c1ccc(OC)cc1`, which MIC [1] is on record?
**A.** Its MIC is 8 µg/mL (≈ 38.6 µM).

**Q.** And the MIC [2]?
**A.** The MIC was 32 µg/mL (≈ 154 µM).

**Q.** And the MBC [3]?
**A.** The MBC was 256 µg/mL (≈ 1240 µM).

**Q.** What about the MIC [4] of the same molecule?
**A.** The MIC was 16 µg/mL (≈ 77.2 µM).

**Q.** What about the MIC [5] of the same molecule?
**A.** The MIC was 16 µg/mL (≈ 77.2 µM).

**Q.** And the MIC [6]?
**A.** Its MIC is 32 µg/mL (≈ 154 µM).

**Q.** What about the MBC [7] of the same molecule?
**A.** The MBC was > 128 µg/mL.

**Q.** And the MIC50 [8]?
**A.** Its MIC50 is 16 µg/mL (≈ 77.2 µM).

**Q.** What about the MIC90 [8] of the same molecule?
**A.** The MIC90 was 16 µg/mL (≈ 77.2 µM).

**Q.** And the MIC [9]?
**A.** The MIC was 8 µg/mL (≈ 38.6 µM).

**Q.** And the MIC [10]?
**A.** The MIC was 8 µg/mL (≈ 38.6 µM).

**Q.** What about the MIC [11] of the same molecule?
**A.** The MIC was 16 µg/mL (≈ 77.2 µM).

**Q.** And the MIC [12]?
**A.** Its MIC is 32 µg/mL (≈ 154 µM).

**Q.** And the MIC [13]?
**A.** Its MIC is 16 µg/mL (≈ 77.2 µM).

**Q.** And the MIC [14]?
**A.** The MIC was 64 µg/mL (≈ 309 µM).

**Q.** And the MBC [15]?
**A.** The MBC was 128 µg/mL (≈ 618 µM).

**Q.** And the MIC [16]?
**A.** Its MIC is 8 µg/mL (≈ 38.6 µM).

**Q.** And the MBC [17]?
**A.** The MBC was 64 µg/mL (≈ 309 µM).

**Q.** And the MIC [18]?
**A.** The MIC was 8 µg/mL (≈ 38.6 µM).

**Q.** What about the MIC [19] of the same molecule?
**A.** Its MIC is 64 µg/mL (≈ 309 µM).

**Q.** And the MIC [20]?
**A.** Its MIC is 16 µg/mL (≈ 77.2 µM).

**Q.** What about the MIC [21] of the same molecule?
**A.** Its MIC is 32 µg/mL (≈ 154 µM).

**Q.** What about the MIC [22] of the same molecule?
**A.** The MIC was 8 µg/mL (≈ 38.6 µM).

**Q.** What about the MIC50 [23] of the same molecule?
**A.** The MIC50 was 16 µg/mL (≈ 77.2 µM).

**Q.** What about the MIC90 [23] of the same molecule?
**A.** Its MIC90 is 32 µg/mL (≈ 154 µM).

**Q.** What about the MIC [24] of the same molecule?
**A.** The MIC was 32 µg/mL (≈ 154 µM).

**Q.** What about the MBC [25] of the same molecule?
**A.** The MBC was 256 µg/mL (≈ 1240 µM).

**Q.** And the MIC [26]?
**A.** The MIC was 16 µg/mL (≈ 77.2 µM).

**Q.** And the MIC [27]?
**A.** The MIC was 16 µg/mL (≈ 77.2 µM).

**Q.** What about the MBC [28] of the same molecule?
**A.** The MBC was 128 µg/mL (≈ 618 µM).

**Q.** And the MIC [29]?
**A.** Its MIC is 16 µg/mL (≈ 77.2 µM).

**Q.** And the MIC [30]?
**A.** The MIC was 16 µg/mL (≈ 77.2 µM).

**Q.** What about the MBC [31] of the same molecule?
**A.** The MBC was 32 µg/mL (≈ 154 µM).

**Q.** And the MIC [32]?
**A.** Its MIC is 32 µg/mL (≈ 154 µM).

**Q.** And the MIC [33]?
**A.** The MIC was 16 µg/mL (≈ 77.2 µM).

**Q.** What about the MIC [34] of the same molecule?
**A.** The MIC was 8 µg/mL (≈ 38.6 µM).

**Q.** And the MIC [35]?
**A.** Its MIC is 16 µg/mL (≈ 77.2 µM).

**Q.** And the MIC [36]?
**A.** The MIC was 32 µg/mL (≈ 154 µM).

**Q.** What about the MBC [37] of the same molecule?
**A.** The MBC was 128 µg/mL (≈ 618 µM).

**Q.** And the MIC50 [38]?
**A.** Its MIC50 is 32 µg/mL (≈ 154 µM).

**Q.** What about the MIC90 [38] of the same molecule?
**A.** Its MIC90 is 32 µg/mL (≈ 154 µM).

**Q.** And the MIC [39]?
**A.** Its MIC is 8 µg/mL (≈ 38.6 µM).

**Q.** What about the MIC [40] of the same molecule?
**A.** Its MIC is 16 µg/mL (≈ 77.2 µM).

**Q.** And the MIC [41]?
**A.** The MIC was 8 µg/mL (≈ 38.6 µM).

**Q.** And the MIC50 [42]?
**A.** Its MIC50 is 32 µg/mL (≈ 154 µM).

**Q.** What about the MIC90 [42] of the same molecule?
**A.** The MIC90 was 64 µg/mL (≈ 309 µM).

**Q.** What about the MIC [43] of the same molecule?
**A.** The MIC was 16 µg/mL (≈ 77.2 µM).

**Q.** What about the MIC [44] of the same molecule?
**A.** The MIC was 32 µg/mL (≈ 154 µM).

Reference: ChEMBL document CHEMBL3045868, “Synthesis and antibacterial activities of para-alkoxy phenyl--ketoaldehyde derivatives” (Med Chem Res, 2013)
